Data taken from patent US9839690B2, “Singlet oxygen-labile linkers and methods of production and use thereof” (The Board of Regents of the University of Oklahoma, priority 2012, dated 2017).

Assays:
[1] = tested on: colon 26 cells; experiment: Antitumor efficacy study, s.c. colon 26 tumors; assay type: in vivo, BALB/c mice; settings: similar dose, pilot studies
Protocol: The antitumor effects of the prodrugs after irradiation were evaluated by using a mouse tumor model: BALB/c mice having s.c. tumors produced by injection of colon 26 cells. After 1.5 h-post i.p. injection of prodrugs, each tumor was irradiated by 690 nm diode laser (360 J/cm^2=200 mW/cm^2 for 30 min) on days 0, 1 and 2. The treatment conditions were determined from pilot studies although those conditions might not have been the optimal conditions.
Four- to six-week-old BALB/c mice (18-20 g, Charles River Laboratories, Inc.) were used for the murine tumor model. The mice were implanted s.c. with 2×10^6 colon 26 cells in PBS (100 μL) on the lower back-neck region. Tumor growth was monitored with digital caliper. Two dimensions l and w (l: the longest axis of tumor and w: the axis perpendicular to l) were used to calculate tumor volume (lw^2/2). Mice with a tumor of the diameter 3-5 mm were used for the experiments.
Samples were filtered using 0.2 μm sterile syringe filter. To each mouse, 200 μL of sample was injected via i.p. once a day on day 0, 1, and 2. Then, 1 h 30 min later mice were anesthetized with ketamine 80 mgkg^−1 and xylazine 6 mgkg^−1, i.p. injection. Tumors were irradiated with a 690 nm diode laser at 200 mW/cm^2 for 30 min (360 J/cm^2). Tumor size was measured with the digital caliper every day after the treatment.

[2] = tested on: MCF-7 cells; experiment: Dark toxicity, MTT (Example 5); assay type: cell-based; settings: Homo sapiens, MCF7, 72 h; MCF-7, dark, 3 days; read-out: IC50D (dark toxicity)
Protocol: It seemed that the bulky groups, CMP-L and CMP-NCL, reduced the cytotoxic activity of CA4, presumably through the interference of its binding to tubulin as estimated by the modeling study.
MCF-7 cells were maintained in minimum essential medium (α-MEM) supplemented with 10% bovine growth serum, 2 mM L-glutamine, 50 units/mL penicillin G, 50 μg/mL streptomycin and 1.0 μg/mL fungizone. MCF-7 cells (5,000 cells/well) were seeded on 96-well plates in the medium and then incubated for 24 h at 37° C. in 5% CO2. Stock solutions (2 mM) were prepared in DMSO. The stocks were further diluted with medium to get necessary final concentrations. The diluted solution (10 μL) was then added to each well (190 μL). The plates were incubated for 24 h and then removed from the incubator. For the phototoxicity study: The plate without a cover was placed on an orbital shaker (Lab-line, Barnstead International) and irradiated by using a diode laser (690 nm, 5.6 mW/cm^2) for 30 min. To ensure uniformity of the light during the irradiation, each plate was shaken gently on an orbital shaker. For the dark toxicity study: Plates were kept in the dark for 30 min, and then returned to the incubator. Cell viability was determined after 3 days by using the MTT assay. Briefly, a 10 μL solution of MTT (10 mg in 1 mL PBS buffer) was added to each well and the plate was incubated for 4 h. Then, the MTT solution was removed and the cells were dissolved in 200 μL of DMSO and the absorbance within each well was measured at 570 nm with background subtraction at 650 nm. The cell viability was then quantified by measuring the absorbance of the treated wells compared to that of the untreated wells (controls) and expressed as a percentage.

[3] = tested on: MCF-7 cells; experiment: Dark toxicity, MTT cell viability (Example 4); assay type: cell-based; settings: Homo sapiens, MCF7, light or radiation study; MCF-7, 96 hr, no irradiation
Protocol: MCF-7 cells (5,000 cells/well) were seeded in 96 well plates. After the plates were incubated for 24 hr, the culture medium was aspirated and the cells were washed with cold PBS (100 μL) once. Then, prodrug in the 200 μL culture media was added to cells. The final concentrations ranging from 1 nM to 1 μM were used to perform concentration dependent cell viability and 25 nM prodrug was used to perform time dependent drug release study. After 96 hr incubation, the cell viability was determined by MTT assay detailed below. The experiments were performed in triplicate. IC50 values were calculated with GraphPad Prism 5.
Cell viability was assessed by MIT assay.^89 In brief, after thoroughly washing the cells 2× with PBS buffer, the cells were treated with 200 μL 0.5 mg/mL MIT (3-(4,5-dimethylthiazol-2-yl)-2,5-diphenyltetrazolium bromide, a yellow tetrazole). Subsequently, the cells were incubated at 37° C. under a humidified atmosphere of 5% CO2 for 4 h. After 4 h of incubation, the solution from each well was taken out, and washed with PBS one time and added 100 μL DMSO. The plates were shaken at room temperature for 10 min and read immediately at 570 nm on a microplate reader (Spectra max, Molecular devices). Cell viability (%) was expressed as a ratio of treated cells to control cells.

[4] = target: T1, tubulin (Sus scrofa, UniProt P02554); experiment: Fluorescence-based tubulin polymerization assay; assay type: biochemical
T1 construct: purchased Cytoskeleton, Inc. BK011P
Protocol: Paclitaxel and CA4 were used as positive control drugs (a polymerization enhancer and an inhibitor, respectively) in addition to the negative control group (FIG. 32).
The fluorescence-based tubulin polymerization was determined by using a kit supplied by Cytoskeleton, Inc. (cat #=BK011P). Its basic principle is that the fluorescence reporter increases as it is incorporated into microtubules during the course of polymerization. The assay was performed following the experimental procedure as described in version 2.1 of the tubulin polymerization assay kit manual. Briefly, the test drug (final concentration=3 μM) was added to a mixture of tubulin and GTP in a buffer solution, and the reaction mixture was incubated at 37° C. Fluorescence was monitored (excitation=360 nm and emission=450 nm) by using a fluorescence plate reader (SpectraMax Gemini EM, Molecular device). Paclitaxel and CA4 were included in the assay as positive controls in addition to the negative control (vehicle only).

[5] = 1H-NMR of drugs and model linker compound with CMP-OMe before and after irradiation; assay type: physicochemical
Excerpt: The cleavage of aminoacrylate linkers after irradiation was supported by the increased coumarin fluorescence of 9 by irradiation (FIGS. 14-21). The unique peak of each compound was integrated against the peak of CMP-OMe (four protons of CMP-OMe at 9.7 ppm, FIG. 14), which was known to be inert to singlet oxygen oxidation. […] However, we observed 77% decrease of the proton peak of the aminoacrylate linker after the irradiation (FIG. 21). […] PD 9 had negligible coumarin emission compared to that of free coumarin at the equimolar concentration. In the presence of 10 μM of 9, MCF-7 cells were incubated for 24 h to activate dPS. Then, the samples were irradiated by visible light (540±10 nm, 8 mW/cm^2, 30 min). […] The released free coumarin was also detected and quantified by HPLC based on the standard curve of free coumarin. As such, almost 99% of 9 released coumarin while only 64% of dPS of 9 were activated when irradiated.

[6] = Photooxygenation kinetics (DPBF fluorescence, Rose Bengal, Stern-Volmer analysis); assay type: physicochemical; settings: acetone, 15° C., 540±10 nm
Protocol: Fluorescence emission was used to monitor the disappearance of 1,3-diphenylisobenzofuran (DPBF) which was recorded on a LS 50 B luminescence spectrometer (Perkin Elmer, USA). DPBF (5×10^−2 M) and Rose Bengal (0.5×10^−5 M) stock solution in dry acetone was prepared. In addition, varying known concentrations of 2,3-dimethylbutene, (E)-N-phenyl-3-(piperidin-1-yl)acrylamide (a model compound with aminoacrylate linker) and Combretastatin A-4 (CA-4) were freshly prepared. Using a tungsten-halogen light source filtered at 540±10 nm (Lumacare), the appropriate solution of DPBF-Rose Bengal with or without a substrate placed in a fluorescence cuvette and held in a thermostated cell at 15° C. with stirring was irradiated with 0.1 mW/cm^2 light intensity at 30 sec interval. The fluorescence intensity of DPBF at 455 nm as a function of time provided the rate of photooxygenation of DPBF. […] As such, the reaction kinetics could be determined in light of the following analysis.
Using the above kinetic analysis and equation (5), the second order rate constant (k) of the aminoacrylate linker was experimentally determined to be 2.5×10^7 M^−1s^−1, wherein k=kr+kq
Then, β value was calculated from the plot of S0/Sx vs. [A]. […] From the kd value of the solvent (kd of acetone=38,400 s^−1), β value of A was calculated. […]

T1 sequence (P02554 whole entry): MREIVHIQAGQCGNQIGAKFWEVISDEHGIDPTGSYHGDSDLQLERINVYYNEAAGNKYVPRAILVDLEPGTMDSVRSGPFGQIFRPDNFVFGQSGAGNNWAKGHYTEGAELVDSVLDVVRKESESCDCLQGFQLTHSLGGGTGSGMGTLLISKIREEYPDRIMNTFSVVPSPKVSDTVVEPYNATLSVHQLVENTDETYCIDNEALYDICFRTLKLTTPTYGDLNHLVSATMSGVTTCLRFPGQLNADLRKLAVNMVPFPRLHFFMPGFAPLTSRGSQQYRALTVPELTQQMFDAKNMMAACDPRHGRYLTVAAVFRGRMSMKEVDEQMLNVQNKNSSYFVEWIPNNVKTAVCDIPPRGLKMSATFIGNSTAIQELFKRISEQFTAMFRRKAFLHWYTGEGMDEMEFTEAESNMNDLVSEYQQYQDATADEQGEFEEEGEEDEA
T1 sequence (P02550 whole entry partner): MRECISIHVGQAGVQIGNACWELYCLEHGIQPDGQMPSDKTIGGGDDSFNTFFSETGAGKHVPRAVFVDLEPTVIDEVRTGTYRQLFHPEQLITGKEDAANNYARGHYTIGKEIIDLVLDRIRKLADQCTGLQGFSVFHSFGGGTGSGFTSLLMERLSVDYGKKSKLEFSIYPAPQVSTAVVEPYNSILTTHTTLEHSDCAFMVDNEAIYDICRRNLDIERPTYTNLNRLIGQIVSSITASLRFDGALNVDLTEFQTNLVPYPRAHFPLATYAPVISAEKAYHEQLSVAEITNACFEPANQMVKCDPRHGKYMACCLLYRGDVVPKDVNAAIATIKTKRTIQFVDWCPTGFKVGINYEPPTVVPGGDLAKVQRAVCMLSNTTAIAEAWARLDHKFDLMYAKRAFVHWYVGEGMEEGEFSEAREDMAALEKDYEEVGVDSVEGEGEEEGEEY

Structure (SMILES)	Significant tumor growth delay by CA4 itself [1]	IC50 [2] [nM]	IC50 [3] [nM]	Pattern of kinetic trace of tubulin polymerization ([4]; 3 μM)	inhibition at 3 µM ([4]; read-out: Inhibition of tubulin polymerization) [%]	Oxidation under the irradiation condition ([5]; 1H-NMR)	Second order rate constant (k = kr+kq) with singlet oxygen [6] [M⁻¹ s⁻¹]	Decrease of the proton peak after irradiation ([5]; CDCl3, 1H-NMR) [%]
COc1ccc(/C=C\c2cc(OC)c(OC)c(OC)c2)cc1O [CA-4, Combretastatin A-4]	not seen	9	8	inhibitor	100	not oxidized at all		
O=C(/C=C/N1CCCCC1)Nc1ccccc1 [Compound 9 (Example 3), (E)-N-Phenyl-3-(piperidin-1-yl)acrylamide]							2.5e+07	77
